Results as given in patent publication US9029414B2, “Triterpenoid compounds and methods of use thereof” (Biotechnology Research Corporation, priority 2008, dated 2015).

Experiments:
Assay type in all cases: cell-based
[1] = system: MOG-induced IL-6 in primary splenocytes; test: IL-6 Quantikine ELISA in primary splenocytes of EAE mice; details: exogenous compound 30 μM; for amount of IL-6 in response to exogenous compound: splenocytes of compound-treated EAE mice (100 mg/kg); for reduction in the amount of MOG-induced IL-6: splenocytes of vehicle-treated EAE mice, MOG 25 μg/mL, 48 hrs
Method: On day 21, EAE mice were sacrificed by cervical dislocation and spleens were removed aseptically. The removed spleens were then cut with sterilized scissors and strained through […] mesh (BD Bioscience) with a plunger of 5 mL syringe (BD Bioscience) in 9 mL of RPMI 1640 (Invitrogen) with 100 U/mL penicillin and 100 μg/mL streptomycin (Sigma). The cell mixture was then added to 9 mL of Lympholyte (Cedarlane Laboratories) for gradient separation of splenocytes from red bloods cells by centrifugation at 1500 g for 20 min. After the centrifugation, the lympholyte layer containing splenocytes were carefully removed and washed with 10 mL of RPMI 1640 at 800 g for 10 min for three times. The isolated splenocytes were seeded onto different plate format and cultured with RPMI 1640 medium (Invitrogen) supplement with 10% heat inactivated fetal bovine serum (Invitrogen) and 100 U/mL penicillin and 100 μg/mL streptomycin at 37° C. CO2 incubator.
Splenocytes from EAE mice were cultured at the density of 1×10^6 cells in 12-well plates (Falcon) in the absence or presence of the MOG peptide (25 μg/mL) (Hooke Laboratories), DA001 and DA021 (30 μM) with RPMI 1640 medium (Invitrogen) supplement with 10% heat inactivated fetal bovine serum (Invitrogen) and 100 U/mL penicillin and 100 μg/mL streptomycin (Sigma) for 48 h. After 48 h, the supernatants were collected by pelleting the cells at 300 g for 10 min at 4° C. 50 μL of the each sample was added to the microtiter plate provided by the manufacturer of the Quantikine ELISA assay kit (R and D systems). Additional 50 μL of assay diluents buffer was added and incubated at room temperature for 2 h. After the incubation, the supernatants were discarded and the cells were washed with wash buffer. […] Subsequently, 100 μL of stop solution was added to each well and the plate was read in 450 nm wavelength on a microplate reader (Dynex Revelation 2.2).
Cells were cultured in RPMI 1640 medium supplement with 10% heat inactivated fetal bovine serum and penicillin/streptomycin, in the absence or presence of MOG (25 μg/mL, Ex) with or without DA001 or DA021 (30 μM, Ex). […] The amount of IL-6 was calculated based on the standard curve established during the assay. […]
Cells were cultured in RPMI 1640 medium supplement with 10% heat inactivated fetal bovine serum and penicillin/streptomycin, in the absence or presence of MOG (25 μg/mL, Ex) with or without DA001 (30 μM, Ex). […] The amount of IL-6 was calculated based on the standard curve established during the assay. […]
Cells were cultured in RPMI 1640 medium supplement with 10% heat inactivated fetal bovine serum and penicillin/streptomycin, in the absence or presence of MOG (25 μg/mL, Ex) with or without DA021 (30 μM, Ex). […] The amount of IL-6 was calculated based on the standard curve established during the assay. […]

EP4 receptor = EP4 receptor (Homo sapiens, UniProt P35408); test: Cellular receptor functional assay (cAMP), EP4; design: expressed in transfected cells; host or cells: CHO cells; details: for Antagonist effect, cAMP measurement: in presence of PGE2
Method: (§1) FIG. 13. […] A: Cellular functional assay for EP2; B: Cellular functional assay for […].
(§2) To determine whether the inhibitory effect of DA001 on the ligand binding to EP receptors results from agonist or antagonist activity, DA001 was evaluated at a single concentration (10 μM) on cellular-specific receptor functional assays. Upon ligand binding, the EP receptors are activated which leads to an increase in intracellular cyclic AMP.
DA001 (10 μM) was subjected to ligand binding assay with the human EP1 or EP4 receptor over-expressing CHO cells. Results are expressed as a percent of control specific agonist response [100-(measured specific response/control specific agonist response)×100] obtained in the presence of DA001.
(§3) DA001 was evaluated at 6 concentrations in cellular assays assessing receptor function. Upon ligand binding, the EP2 and EP4 receptor is activated which leads to an increase in intracellular cyclic AMP.
(§4) DA021 inhibits PGE2 ligand binding to EP1, EP2 and EP4 receptors. To determine whether the inhibitory effect is due to agonist or antagonist activity, DA021 was evaluated and compared at 1 concentration (30 uM) in cellular assays assessing receptor function. Upon ligand binding, the EP receptors are activated which leads to an increase in intracellular cyclic AMP.

EP2 receptor = EP2 receptor (Homo sapiens, UniProt P43116); test: Cellular receptor functional assay (cAMP), EP2; design: expressed in transfected cells; details: for Agonist effect, cAMP measurement / Antagonist effect, cAMP measurement: EP2 receptor; for Antagonist effect, cAMP measurement: in presence of PGE2
Method: as §1, §2, §3, §4

[2] = inhibition of PGE2-induced cAMP increase, 6 concentrations, read-out: IC50, antagonist effect

Sequence of EP2 receptor (P43116 whole entry): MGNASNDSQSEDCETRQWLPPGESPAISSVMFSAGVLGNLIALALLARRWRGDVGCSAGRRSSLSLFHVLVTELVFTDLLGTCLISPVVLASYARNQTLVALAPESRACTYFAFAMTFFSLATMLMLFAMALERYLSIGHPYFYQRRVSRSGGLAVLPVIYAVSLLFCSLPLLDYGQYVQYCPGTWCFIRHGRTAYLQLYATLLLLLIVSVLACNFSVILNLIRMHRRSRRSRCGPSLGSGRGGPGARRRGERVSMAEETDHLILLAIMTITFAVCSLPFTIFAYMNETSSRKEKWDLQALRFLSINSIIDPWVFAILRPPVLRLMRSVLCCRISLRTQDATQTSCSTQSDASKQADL
Sequence of EP4 receptor (P35408 whole entry): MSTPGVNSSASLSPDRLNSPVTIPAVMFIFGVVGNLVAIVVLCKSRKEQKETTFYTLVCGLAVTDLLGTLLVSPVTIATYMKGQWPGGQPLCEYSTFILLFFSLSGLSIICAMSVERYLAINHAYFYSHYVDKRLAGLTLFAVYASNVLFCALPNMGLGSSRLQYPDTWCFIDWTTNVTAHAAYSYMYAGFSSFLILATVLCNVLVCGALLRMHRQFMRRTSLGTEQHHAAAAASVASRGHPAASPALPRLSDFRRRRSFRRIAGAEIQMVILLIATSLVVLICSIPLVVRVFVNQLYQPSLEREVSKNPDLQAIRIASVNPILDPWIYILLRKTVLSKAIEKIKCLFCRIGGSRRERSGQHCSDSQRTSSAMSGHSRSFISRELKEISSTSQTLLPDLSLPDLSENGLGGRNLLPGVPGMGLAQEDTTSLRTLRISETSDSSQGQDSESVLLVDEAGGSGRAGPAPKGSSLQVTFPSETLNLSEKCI

Compound	amount of IL-6 in response to exogenous compound [1]	reduction in the amount of MOG-induced IL-6 [1] [%]	Agonist effect, cAMP measurement (EP4 receptor; EP4 receptor, 10 μM) [%]	Antagonist effect, cAMP measurement (EP4 receptor; EP4 receptor, 10 μM) [%]	IC50 (EP4 receptor; [2]) [µM]	Agonist effect, cAMP measurement (EP2 receptor; 10 μM) [%]	Antagonist effect, cAMP measurement (EP2 receptor; 10 μM) [%]	IC50 (EP2 receptor; [2]) [µM]	Antagonist effect, cAMP measurement (EP4 receptor; EP4 receptor, 30 uM)	Agonist effect, cAMP measurement (EP2 receptor; 30 uM)	Antagonist effect, cAMP measurement (EP2 receptor; 30 uM)
C=C(C)[C@@H]1CC[C@]2(C(=O)O)CC[C@]3(C)C(CC[C@@H]4[C@@]5(C)CC[C@H](O[C@@H]6OC[C@H](O)[C@H](O)[C@H]6O[C@@H]6O[C@@H](C)[C@H](O)[C@@H](O)[C@H]6O)[C@@](C)(CO)[C@@H]5CC[C@]43C)[C@@H]12 (stereo partly drawn) [DA001, 3-O-[α-L-rhamnopyranosyl-(1→2)-α-L-arabinopyranosyl]-3,23-dihydroxy-20(29)-lupen-28-oic acid]	markedly decreased	73	−11	41	20	−0.8	2.2	36	–	–	–
C=C(C)[C@@H]1CC[C@]2(/C=N/O)CC[C@]3(C)C(CCC4[C@@]5(C)CCC(=O)[C@@](C)(CO)[C@@H]5CC[C@]43C)C12 (stereo partly shown) [DA021]	markedly decreased	79	–	–	–	–	–	–	18	−3	4
